Eight compounds from publication PMC11392244, “Characterization of a unique catechol-O-methyltransferase as a molecular drug target in parasitic filarial nematodes” (PLOS Neglected Tropical Diseases, 2024) can be followed below.

The subject of assay [1] is DiMT protein. Kind of assay: DiMT enzyme activity, kinetics and substrate specificity (MTase-Glo methyltransferase assay). The conditions noted are these: for DiMT catalytic activity for methylation of the substrate: SAM as co-substrate; for Vmax / Km: Michaelis-Menten fit; for Km: other substrate fixed. Type of assay: biochemical, Dirofilaria immitis.
Assay [2] relates to DiMT protein. Type of assay: biochemical, Dirofilaria immitis.
Another assay deals with D. immitis microfilariae. Kind of assay: In vitro efficacy against live D. immitis microfilariae (motility, completely immotile %). Type of assay: cell-based, Dirofilaria immitis. The settings on record: for Completely Immotile Microfilariae (%): single replicate.
[3] abbreviates: DiMT 90 ng/μL, SAM 40 μM, substrate 300 μM.

SMILES strings stand for the structures. Where “and” joins values, the source holds several entries; their conditions need not be identical. Identical values can stand only once. Like-named read-outs stand apart in the source and are kept apart here.

In the case of `NCCc1c[nH]cn1` [Histamine], the “Mean RLU” value in the assay on DiMT protein [1] (setting [3]) amounted to 167.3 RLU. Also, the “DiMT catalytic activity for methylation of the substrate” value (“DiMT catalytic activity for methylation” for short) in the assay on DiMT protein [1] is “did not depict catalytic activity”.
As for `NCCc1ccc(O)c(O)c1` [Dopamine], the “Kcat (S^-1)” value with DiMT protein [1] (DiMT 90 ng/μL) is 241.28 S^-1. Also, the “Mean RLU” value in the assay with DiMT protein [1] (setting [3]) came to 5806.3 RLU; with DiMT protein [1] (dopamine 50 uM, SAM (30 µM)), 114.3 RLU; in the assay on DiMT protein [1] (dopamine 100 uM, SAM (30 µM)), 391.3 RLU; with DiMT protein [1] (dopamine 200 uM, SAM (30 µM)), 1186.3 RLU; with DiMT protein [1] (dopamine 300 uM, SAM (30 µM)) it was 2161.3 RLU; with DiMT protein [1] (dopamine 400 uM, SAM (30 µM)), 2830.0 RLU. In the assay with DiMT protein [1] (dopamine 500 uM, SAM (30 µM)), the “Mean RLU” value was found to be 3483.0 RLU. In the assay with DiMT protein [1] (DiMT 90 ng/μL), the “Vmax” value is 1549.0 nmol/µg/min and 1549.0 ± 21.4 nmol/µg/min. The Michaelis-Menten constant (Km) (commonly the concentration of substrate that gives half-maximal velocity) in the assay on DiMT protein [1] (DiMT 90 ng/μL) amounted to 106 ± 6.2 µM. In addition, the “DiMT catalytic activity for methylation” value with DiMT protein [1] was “readily catalyzed the methylation”. Moreover, the “RLU (single experiments)” value was 106.0 RLU and 141.0 RLU and 96.0 RLU in the assay with DiMT protein [1] (dopamine 50 uM, SAM (30 µM)); 958.0 RLU and 965.0 RLU and 1636.0 RLU in the assay on DiMT protein [1] (dopamine 200 uM, SAM (30 µM)); 1950.0 RLU and 1857.0 RLU and 2677.0 RLU in the assay with DiMT protein [1] (dopamine 300 uM, SAM (30 µM)); 2877.0 RLU and 2606.0 RLU and 3007.0 RLU in the assay on DiMT protein [1] (dopamine 400 uM, SAM (30 µM)); 2900.0 RLU and 4023.0 RLU and 3526.0 RLU in the assay with DiMT protein [1] (dopamine 500 uM, SAM (30 µM)).
For the compound `NCC(O)c1ccc(O)cc1` (stereo not shown) [Octopamine], in the assay with DiMT protein [1], the “fold lower DiMT activity than that of dopamine” value turned out to be 3 fold and the “DiMT catalytic activity for methylation” value is given as “modest activity”. Moreover, the “Mean RLU” value in the assay on DiMT protein [1] (setting [3]) came to 1996.7 RLU.
Regarding `OCCS` [2-Mercaptoethanol], the “Mean RLU” value with DiMT protein [1] (setting [3]) is -2592.7 RLU. Moreover, the “DiMT catalytic activity for methylation” value in the assay with DiMT protein [1] is on record as “did not depict catalytic activity”.
In the case of `NCCOP(=O)(O)O` [Phosphoethanolamine], the “Mean RLU” value with DiMT protein [1] (setting [3]) was -1783.7 RLU. Besides, the “DiMT catalytic activity for methylation” value with DiMT protein [1] is on record as “did not depict catalytic activity”.
`NCCc1ccc(O)cc1` [Tyramine]: in the assay on DiMT protein [1], the “fold lower DiMT activity than that of dopamine” value was found to be 6 fold and the “DiMT catalytic activity for methylation” value is reported as “modest activity”. The “Mean RLU” value with DiMT protein [1] (setting [3]) is 1001.7 RLU.
In the case of `C[S+](CC[C@H](N)C(=O)[O-])C[C@H]1O[C@@H](n2cnc3c(N)ncnc32)[C@H](O)[C@@H]1O` (stereo partly drawn) [SAM, S-adenosyl-L-methionine], the “Kcat (S^-1)” value with DiMT protein [1] (DiMT 90 ng/μL) stood at 42.94 S^-1. The “Vmax” value with DiMT protein [1] (DiMT 90 ng/μL) was 275.7 ± 3.9 nmol/µg/min. In the assay on DiMT protein [1] (DiMT 90 ng/μL), the Km worked out at 104 ± 2.7 µM. Besides, the “Mean RLU” value in the assay on DiMT protein [1] (SAM 10 µM, dopamine 360 µM) was determined as 756.5 RLU; with DiMT protein [1] (SAM 20 µM, dopamine 360 µM), 2042.5 RLU; with DiMT protein [1] (SAM 30 µM, dopamine 360 µM), 3090.5 RLU; in the assay on DiMT protein [1] (SAM 40 µM, dopamine 360 µM), 4397.8 RLU; in the assay on DiMT protein [1] (SAM 50 µM, dopamine 360 µM) it was 5027.5 RLU; in the assay with DiMT protein [1] (SAM 60 µM, dopamine 360 µM), 4815.8 RLU. Besides, the “RLU (single experiments)” value in the assay with DiMT protein [1] (SAM 10 µM, dopamine 360 µM) is 914.5 RLU and 723.5 RLU and 631.5 RLU; in the assay on DiMT protein [1] (SAM 20 µM, dopamine 360 µM) it was 2199.5 RLU and 2145.5 RLU and 1782.5 RLU; with DiMT protein [1] (SAM 30 µM, dopamine 360 µM), 2251.5 RLU and 2688.5 RLU and 4331.5 RLU; in the assay with DiMT protein [1] (SAM 40 µM, dopamine 360 µM), 4459.5 RLU and 4406.5 RLU and 4327.5 RLU; in the assay on DiMT protein [1] (SAM 50 µM, dopamine 360 µM) it was 4688.5 RLU and 5346.5 RLU and 5047.5 RLU; in the assay with DiMT protein [1] (SAM 60 µM, dopamine 360 µM), 4881.5 RLU and 5382.5 RLU and 4183.5 RLU.
Regarding `COc1ccc(-c2c(C)c(C(=O)O)nc(-c3ccc4c(O)c(OC)c5c(c4n3)=NC(C)(C)N=5)c2N)c(O)c1OC` [NSC62709], the “Mean Percent Inhibition” value in the assay on DiMT protein [2] (40 µM) was 32.1% and 22.9% and 27.7%; with DiMT protein [2] (80 µM) it was 63.8% and 49.7% and 46.2%; in the assay with DiMT protein [2] (120 µM), 65.7% and 71.6% and 62.3%; with DiMT protein [2] (140 µM) it was 72.8% and 64.4% and 72.4%; in the assay on DiMT protein [2] (180 µM), 81.5% and 69.4% and 74.5%. The “Mean Percent Inhibition, Average” value with DiMT protein [2] (40 µM) is recorded as 27.6%; in the assay with DiMT protein [2] (80 µM), 53.2%; with DiMT protein [2] (120 µM), 66.5%; with DiMT protein [2] (140 µM), 69.9%; in the assay with DiMT protein [2] (180 µM), 75.1%. For the same compound, in the assay on DiMT protein [2] (read-out: IC 50 (μM ± SEM)), the IC50 was 76.2 ± 1.7 µM. Moreover, the “Mean completely Immotile (%)” value with D. immitis microfilariae (50 µM, 0 h) was found to be 0%; in the assay with D. immitis microfilariae (50 µM, 24 h), 1.67%; in the assay on D. immitis microfilariae (50 µM, 48 h), 3.33%; in the assay with D. immitis microfilariae (50 µM, 72 h), 5.67%; in the assay on D. immitis microfilariae (50 µM, 96 h), 7.33%; in the assay with D. immitis microfilariae (50 µM, 120 h), 14%. For the same compound, the “Mean completely Immotile (%)” value in the assay on D. immitis microfilariae (100 µM, 0 h) came to 0%; in the assay with D. immitis microfilariae (100 µM, 24 h), 3.67%; with D. immitis microfilariae (100 µM, 48 h) it was 7%; with D. immitis microfilariae (100 µM, 72 h), 9.33%; with D. immitis microfilariae (100 µM, 96 h) it was 12.33%; in the assay on D. immitis microfilariae (100 µM, 120 h) it was 17%. For the same compound, the “Mean completely Immotile (%)” value in the assay on D. immitis microfilariae (150 µM, 0 h) amounted to 0%; in the assay with D. immitis microfilariae (150 µM, 24 h), 4.67%; in the assay with D. immitis microfilariae (150 µM, 48 h), 8.67%; in the assay with D. immitis microfilariae (150 µM, 72 h) it was 12.33%; with D. immitis microfilariae (150 µM, 96 h), 14.67%; in the assay on D. immitis microfilariae (150 µM, 120 h), 21.33%. For the same compound, the “Mean completely Immotile (%)” value with D. immitis microfilariae (200 µM, 0 h) is 0%; in the assay on D. immitis microfilariae (200 µM, 24 h), 6.67%; in the assay with D. immitis microfilariae (200 µM, 48 h) it was 10.67%; in the assay with D. immitis microfilariae (200 µM, 72 h), 14.33%; in the assay on D. immitis microfilariae (200 µM, 96 h) it was 18.67%; with D. immitis microfilariae (200 µM, 120 h) it was 25.33%. Moreover, the “Completely Immotile Microfilariae (%)” value is 0% in the assay on D. immitis microfilariae (50 µM, 0 h); 1% and 2% (2×) in the assay with D. immitis microfilariae (50 µM, 24 h); 3% (2×) and 4% in the assay with D. immitis microfilariae (50 µM, 48 h); 5% (2×) and 7% in the assay on D. immitis microfilariae (50 µM, 72 h); 7% and 9% and 6% with D. immitis microfilariae (50 µM, 96 h); 12% and 14% and 16% with D. immitis microfilariae (50 µM, 120 h). The “Completely Immotile Microfilariae (%)” value was 0% in the assay on D. immitis microfilariae (100 µM, 0 h); 3% (2×) and 5% with D. immitis microfilariae (100 µM, 24 h); 7% and 6% and 8% in the assay with D. immitis microfilariae (100 µM, 48 h); 9% (2×) and 10% with D. immitis microfilariae (100 µM, 72 h); 10% and 12% and 15% in the assay with D. immitis microfilariae (100 µM, 96 h); 15% and 17% and 19% in the assay with D. immitis microfilariae (100 µM, 120 h). The “Completely Immotile Microfilariae (%)” value with D. immitis microfilariae (150 µM, 0 h) is 0%; with D. immitis microfilariae (150 µM, 24 h), 5% (2×) and 4%; in the assay with D. immitis microfilariae (150 µM, 48 h), 9% and 6% and 11%; in the assay on D. immitis microfilariae (150 µM, 72 h), 12% and 11% and 14%; in the assay with D. immitis microfilariae (150 µM, 96 h), 13% and 14% and 17%; with D. immitis microfilariae (150 µM, 120 h), 20% and 21% and 23%. Besides, the “Completely Immotile Microfilariae (%)” value is 0% with D. immitis microfilariae (200 µM, 0 h); 7% (2×) and 6% in the assay on D. immitis microfilariae (200 µM, 24 h); 12% and 9% and 11% in the assay on D. immitis microfilariae (200 µM, 48 h); 16% (2×) and 11% with D. immitis microfilariae (200 µM, 72 h); 19% and 17% and 20% in the assay on D. immitis microfilariae (200 µM, 96 h); 24% and 26% (2×) in the assay with D. immitis microfilariae (200 µM, 120 h). In addition, the “effect on microfilariae” value in the assay on D. immitis microfilariae (up to 120 h of culture) is “insignificant effect”.
